Measured values published in patent publication US11806354B2 (priority 2017, dated 2023).
Like-named read-outs stand apart in the source and are kept apart here. Values belong to the molecule of their own block, whether it stands above or below them.

Experiments:
[1] = Protocol: The effect of varying amounts of potassium carbonate (K2CO3) and sodium bicarbonate (NaHCO3) on the pH of acidic media was tested. The acidic media was chosen to simulate gastric conditions. K2CO3 or NaHCO3 was added to 50 mL of a 0.01 N HCl solution (pH 2). The pH of the solution was measured after addition of the K2CO3 or NaHCO3. Deionized water (240 mL) was then added to the mixture and pH was measured again.
migraine patients = experiment: Phase 3 placebo- and active-controlled trial, acute treatment of moderate and severe migraine (Example 11); assay type: in vivo, human
[2] = Dissolution testing of monolayer meloxicam/rizatriptan tablet in acidic medium (Example 4); assay type: physicochemical; conditions: 0.01 N HCl
From the text: The inclusion complex was the same as the inclusion complex of Example 3.

[3] = human beings, 15 mg intramuscular dose; cited from earlier work
[4] = monolayer tablet of Example 4, 0 min, 75 RPM, 37° C
[5] = monolayer tablet of Example 4, 15 min
[6] = monolayer tablet of Example 4, 30 min
[7] = monolayer tablet of Example 4, 45 min
[8] = monolayer tablet of Example 4, 60 min
[9] = monolayer tablet of Example 4, 90 min
[10] = monolayer tablet of Example 4, 120 min

pH ([1]; 300 mg added to 50 mL 0.01 N HCl): 5.90 | pH ([1]; 750 mg added to 50 mL 0.01 N HCl): 8.30 | pH ([1]; 1000 mg, 0.01 N HCl + 240 mL water): 8.60
SMILES: O=C([O-])O.[Na+] [NaHCO3, sodium bicarbonate]

Dizziness, % of subjects (migraine patients; in vivo): 2.1% | Dizziness, number of subjects (migraine patients; in vivo): 9 | Nausea, % of subjects (migraine patients; in vivo): 4.8% | Nausea, number of subjects (migraine patients; in vivo): 21 | Somnolence, % of subjects (migraine patients; in vivo): 2.1% | Somnolence, number of subjects (migraine patients; in vivo): 9 | percent dissolved [2, 4]: 0% | percent dissolved [2, 5]: 89% | percent dissolved [2, 6]: 102% | percent dissolved [2, 7]: 103% | percent dissolved [2, 8]: 103% | percent dissolved [2, 9]: 103% | percent dissolved [2, 10]: 103%
SMILES: CN(C)CCc1c[nH]c2ccc(Cn3cncn3)cc12 [Rizatriptan]
patients experiencing relapse of pain (migraine patients; 48-hour period after dosing): 45.2% | percentage of patients with sustained pain freedom (migraine patients; 2 hours to 48 hours): 8.8% | probability of experiencing pain relief (migraine patients; 24 hours after taking): approximately 60% | Any Treatment-Emergent Adverse Event, number of subjects (migraine patients; in vivo): 67 | median time to pain relief (migraine patients; in vivo): 4 h

percent dissolved [2, 4]: 0% | percent dissolved [2, 5]: 79% | percent dissolved [2, 6]: 92% | percent dissolved [2, 7]: 93% | percent dissolved [2, 8]: 93% | percent dissolved [2, 9]: 93% | percent dissolved [2, 10]: 94%
SMILES: Cc1cnc(NC(=O)C2=C(O)c3ccccc3S(=O)(=O)N2C)s1 [Meloxicam]
AUC0-24 of meloxicam [3]: about 27 μg·hr/mL
